The source of these data is patent publication US8653056B2, “Method of preparation of a soluble formulation of water-insoluble pentacyclic and tetracyclic terpenoids, a soluble formulation of a pentacyclic or tetracyclic terpenoid and a pharmaceutical composition containing this soluble formulation” (Univerzita Karlova V Praze, Prirodovedecka Fakulta, priority 2006, dated 2014).

Series [1] is described as follows: Concentration of dissolved triterpenoid in the aqueous cyclodextrin solution (HPLC-ESI MS). It is filed as physicochemical. The settings on record: 2-hydroxypropyl-γ-cyclodextrin, 50° C. As for the experimental part:
Into the resulting colourless, viscous solution, soluble triterpene derivative (1.50 g) is added at once and the mixture is again vigorously stirred at the temperature of 50° C. […] After the triterpenoid is completely dissolved, the resulting clear solution is cooled to room temperature, filtered with a syringe filter (hydrophilic, pore size 0.22 μm) in order to be sterile and is placed in a refrigerator.
Method B: In a mixture of water (14.0 ml) and propylene glycol (6.0 ml), 2-hydroxypropyl-γ-cyklodextrin (7.00 g) is dissolved at the temperature of 50° C. under vigorous stirring. Into the resulting colourless, viscous solution, soluble triterpene derivate (1.00 g) is added at once and is again vigorously stirred at the temperature of 50° C. […] After the triterpenoid is completely dissolved, the resulting clear solution is cooled to room temperature, filtered with a syringe filter (hydrophilic, pore size 0.22 μm) in order to be sterile and is placed in a refrigerator.
Analytic Determination of the Concentration of Dissolved Triterpenoids in the Application Form and in Plasma Samples
(§1) HPLC-ESI MS technique was used or the determination of the concentration of dissolved triterpenoids. The samples were measured in one analytical batch with calibration solutions and blind control. The sample for the measurement was prepared from 50 μl of aqueous solution containing the inclusion compound by dilution with methanol to the volume of 10 ml. Subsequently, 10 μl of the sample solution after the first dilution is further diluted to 1 ml by the mobile phase. The blind control was obtained from 50 μl of pre-prepared aqueous solution of 2-hydroxypropyl-γ-cyklodextrin by dilution with methanol to 10 ml. Subsequently, 10 μl of the blind control solution after the first dilution is further diluted to 1 ml by methanol. Stock solutions of standards (concentration 0.2 mg/ml) were prepared by weighing 2.00 mg of analyte to 10 ml graduated flask and dissolution in methanol. The calibration samples were then prepared by dilution of the stock solution with mobile phase (0.4 μg/ml resp. 4 μg/ml).
The concentration was determined by comparison with standard and calculated to the original solution containing the inclusion compound.

A short description of series [2]: Bioavailability and pharmacokinetic profile at oral administration to laboratory mice. The class given is in vivo, outbred mice CD-1. As to conditions: intragastric single dose 200 μl, soluble cyclodextrin formulation. The procedure: Determination of Bioavailability and Pharmacokinetic Profile at Oral Administration of the Compounds to Laboratory Mice
Soluble cyclodextrin formulations of terpenoid compounds, prepared in accordance with the aforementioned methods A or B, were administered without dilution to outbred mice CD-1 intragastrically (200 μl in a single dose) as aqueous solutions by injection syringe equipped with a gastric tube. Insoluble compounds were administered intragastrically as well (200 μl in a single dose), but in the form of aqueous suspensions in 0.5-1% carboxymethyl cellulose. In time intervals 2, 4, 6, 8, 12 and 24 h, blood was taken from the mice, the blood was centrifuged and the obtained plasma was subsequently analysed by HPLC-ESI MS technique.
as §1
The analysis was carried out at ODS Hypersil 125×2.1 mm, 5 um, SN 0745415X, Thermo EC column, ODS 4.0×3.0 mm precolumn, Phenomenex, mobile phase A—100 mmol/L aqueous solution of ammonium formate, pH is adjusted to 5 by formic acid, B—100 mmol/L methanolic solution of ammonium formate, column temperature: 25° C., linear gradient or isocratic elution, injected volume 30 μl. The concentration was determined by comparison with standard and calculated to the original solution containing the inclusion compound.

[3] abbreviates: solution method A: water, saturated sodium hydrogencarbonate solution, ethanol.

For the molecule `CCOC(=O)[C@@]12CC[C@]3(C)[C@H](CC[C@@H]4[C@@]5(C)CC[C@H](O[C@@H]6O[C@H](CO)[C@@H](O)[C@H](O)[C@H]6O)C(C)(C)[C@@H]5CC[C@]43C)C1=C(C(C)C)C(=O)C2` [4i], in series [1] (solution method B: water, propylene glycol), the “Conc. of dissolved substance” value amounted to 56000 µg/mL. The oral availability result in series [2] was “prove oral availability”.

Turning to `C=C(C)[C@@H]1CC[C@]2(C(=O)OCC)CC[C@]3(C)[C@H](CC[C@@H]4[C@@]5(C)CC[C@H](OC(=O)CCC(=O)O)C(C)(C)[C@@H]5CC[C@]43C)[C@@H]12` [2b], the “Conc. of dissolved substance” value in series [1] (setting [3]) turned out to be 45000 µg/mL. Moreover, in series [2], the oral availability entry is “prove oral availability”.

Turning to `C=C(C)[C@@H]1CC[C@]2(C(=O)OC)CC[C@]3(C)[C@H](CC[C@@H]4[C@@]5(C)CC[C@H](OC(=O)CCCC(=O)O)C(C)(C)[C@@H]5CC[C@]43C)[C@@H]12` [2i], in series [1] (setting [3]), the “Conc. of dissolved substance” value is 51000 µg/mL. Besides, in series [2], the oral availability result was “prove oral availability”.

With `COC(=O)[C@@]12CC[C@]3(C)[C@H](CC[C@@H]4[C@@]5(C)CC[C@H](OC(=O)CCC(=O)O)C(C)(C)[C@@H]5CC[C@]43C)C1=C(C(C)C)C(=O)C2=O` [5a], in series [1] (setting [3]), the “Conc. of dissolved substance” value is 50000 µg/mL. Moreover, in series [2], the oral availability result was “prove oral availability”.

With `CC(C)C1=C2[C@H]3CC[C@@H]4[C@@]5(C)CC[C@H](OC(=O)CC(C)(C)C(=O)O)C(C)(C)[C@@H]5CC[C@@]4(C)[C@]3(C)CC[C@@]2(C(=O)O)CC1=O` [4t], in series [1] (setting [3]), the “Conc. of dissolved substance” value was found to be 49000 µg/mL. Besides, the oral availability result in series [2] is “prove oral availability”.

In the case of `C=C(C)[C@@H]1CC[C@]2(C(=O)OCC(=O)O)CC[C@]3(C)[C@H](CC[C@@H]4[C@@]5(C)Cc6nccnc6C(C)(C)[C@@H]5CC[C@]43C)[C@@H]12` [6a], in series [1] (setting [3]), the “Conc. of dissolved substance” value stood at 56000 µg/mL. Further, the oral availability entry in series [2] was “prove oral availability”.

`CC1(C)CCC23CCC4(C)C(CCC5C6(C)CC(NC(=O)CCC(=O)O)C(O)C(C)(C)C6CCC54C)C2C1OC3` (centres unmarked) [8a]: the “Conc. of dissolved substance” value in series [1] (setting [3]) amounted to 37000 µg/mL. In addition, the oral availability result in series [2] is listed as “prove oral availability”.
